From BindingDB's records for PubMed 31434879 (University of California Irvine (UCI)) come the findings set out here.

What is called IC50 is the concentration that inhibits the measured activity by half.

Assay [1] in a line: Inhibition of FLT3-ITD (unknown origin) expressed in mouse BaF3 cells assessed as inhibition of FLT3-ITD dependent cell proliferation incubated for 3 days by ATPlite 1step Luminescence Assay reagent based assay. (In general: In ATP-based viability assays light output follows the ATP content of the culture.)
Assay [2] in a line: Inhibition of FLT3 (unknown origin) expressed in mouse BaF3 cells assessed as inhibition of FLT3 ligand-FLT3 dependent cell proliferation incubated for 3 days by ATPlite 1step Luminescence Assay reagent based assay.

As for `COc1ncc(F)cc1CNc1ccc(Cc2c[nH]c3ncc(C)cc23)c(F)n1` [US9096593, P-2049], the IC50 in assay [1] and in assay [2] was greater than 10 µM throughout.
